Reference: patent US8178136B2, “Composition based on vegetal extracts of Ajuga reptans for preventing hair loss, stimulating the growth of hair, regulating the production of sebum” (Giuliani S.p.A., priority 2005, dated 2012)
“And” between values parts separate entries of the source, which are not always exact repeats. Identical values can stand only once.

Test system: 5α-reductase
Assay: in-vivo inhibitory activity of 5α-reductase: haematic levels of DHT in rats after oral administration
Parameters: species or system rat
Settings: for Seric concentrations of DHT: individual rat values; for Seric concentrations of DHT, average: basal average 335.7
Experimental: A study was carried out to determine in-vivo the inhibitory activity of 5α-reductase on the part of a total extract deriving from a cellular culture of Ajuga reptans.
The study was effected by determining the haematic levels of DHT (5α-dihydrotestosterone) on rats after administration of the extract being studied.
For the in-vivo study of the inhibition of 5α-reductase, Sprague-Dawley adult male rats were used (Charles River Italia) having a body weight of 200-250 g.
The animals were stalled under standard conditions: at a temperature of 22/23° C., with 65% relative humidity, exposing them to illumination cycles of 12 h light/12 h darkness.
A standard diet in the form of pellets (standard diet, Charles River) was administered to the rats, with water ad libitum
The experimentation was carried out according to protocols authorized by the Committee for the Care and Use of Animals of the Università degli Studi of Milan. Tests were carried out on the rats, effected from the retro-orbital plexus, immediately before the pharmalogical treatment (t0) and subsequently at a distance of 3, 6 and 8 hours after administration.
The administration of the substances being studied was effected orally.
In correspondence with each test on the animals treated, tests were also effected on non-treated animals to determine the basal analyte level. Both testosterone and DHT are in fact characterized by a significant circadian fluctuation.
The plasma obtained from the whole blood treated with EDTA after centrifugation was preserved at −20° C. until dosage.
The plasmatic concentrations of DHT (dihydrotestosterone) were determined with a commercial kit (DSL, Chematil, Angri, SA) after extraction of the samples.
All the samples of an experimental set were dosed together to reduce the inter-analytic variability.

## CC(C)(C)NC(=O)[C@H]1CC[C@H]2[C@@H]3CC[C@H]4NC(=O)C=C[C@]4(C)[C@H]3CC[C@]12C [Finasteride]
Finasteride 1 mg oral, 3 hrs
  Seric concentrations of DHT: 569.6 pg/mL and 404.6 pg/mL and 530.0 pg/mL and 298.1 pg/mL and 505.3 pg/mL and 300.0 pg/mL
Finasteride 1 mg oral, 3 hrs, n=6
  Seric concentrations of DHT, average: 434.6 pg/mL
Finasteride 1 mg oral, 6 hrs
  Seric concentrations of DHT: 592.1 pg/mL and 148.5 pg/mL and 420.1 pg/mL and 404.1 pg/mL and 565.0 pg/mL and 379.6 pg/mL
Finasteride 1 mg oral, 6 hrs, n=6
  Seric concentrations of DHT, average: 418.2 pg/mL
Finasteride 1 mg oral, 8 hrs
  Seric concentrations of DHT: 530.1 pg/mL and 173.1 pg/mL and 110.0 pg/mL and 706.7 pg/mL and 140.1 pg/mL and 503.9 pg/mL
Finasteride 1 mg oral, 8 hrs, n=6
  Seric concentrations of DHT, average: 360.6 pg/mL
Finasteride 5 mg oral, 3 hrs
  Seric concentrations of DHT: 641.0 pg/mL and 924.2 pg/mL and 569.4 pg/mL and 217.1 pg/mL and 618.6 pg/mL and 151.2 pg/mL
Finasteride 5 mg oral, 3 hrs, n=6
  Seric concentrations of DHT, average: 520.2 pg/mL
Finasteride 5 mg oral, 6 hrs
  Seric concentrations of DHT: 49.7 pg/mL and 128.3 pg/mL and 176.9 pg/mL and 81.2 pg/mL and 205.2 pg/mL and 103.6 pg/mL and 54.4 pg/mL and 60.7 pg/mL
Finasteride 5 mg oral, 6 hrs, n=8
  Seric concentrations of DHT, average: 107.5 pg/mL
Finasteride 5 mg oral, 8 hrs
  Seric concentrations of DHT: 576.6 pg/mL and 250.9 pg/mL and 300.1 pg/mL and 201.6 pg/mL and 108.8 pg/mL and 745.4 pg/mL
Finasteride 5 mg oral, 8 hrs, n=6
  Seric concentrations of DHT, average: 363.9 pg/mL
rats, oral, vs. basal levels
  trend of the concentration of DHT after administration: 8 hours after treatment, the DHT rises returning to the basal levels
